Reference: article PMC6145916, “Interaction of mitochondrial fission factor with dynamin related protein 1 governs physiological mitochondrial function in vivo” (Scientific Reports, 2018)
Where no end group is shown, it is not given here.

System: primary cortical neurons
Test: Mitochondrial motility, primary cortical neurons
Type: cell-based, rat
Conditions: 4 µM P259, one hour
Procedure: Bottom, quantification of the form factor (degree of branching) and aspect ratio (major/minor axis length). At least 10,000 mitochondrial fragments were analyzed for each condition. Mitochondrial reactive oxygen species production (MitoSox Red) (b) and membrane potential (TMRM) (c) after overnight treatment with indicated concentrations of peptide (n = 3, with 3 replicates). […] Overlay of live microscopy imaging at time 0 (green) and 150 (red) seconds. […] An estimation of the % mobile mitochondria from the Pearson coefficient of each set of images. Data are mean ± s.e.
To quantify mitochondrial motility, the TMRM images were colored green and red at times 0 and 150 seconds, respectively. Mitochondrial motility corresponded to decreased co-localization of the two colors (Fig. 3d). […] Therefore, Mff-mediated anchoring of Drp1 on the outer mitochondrial membrane was necessary for mitochondrial motility in primary cortical neurons.
DMI6000B inverted microscope. All mitochondria were imaged with a GFP fi lter. Then, green […]
filter every 30 seconds for 5 minutes. The initial image was subtracted from each subsequent image to track signal change over time. […]
GFP filter (Keyence). […] The GFP and MitoSox signals were measured in a ring around each nucleus. Average MitoSox levels were quantified in […]
To quantify mitochondrial motility, the images at time 0 and 150 seconds w ere overlaid. […]

## YGRKKRRQRRRGSGIIQLPEIVVV-NH2 (C-terminus assumed) [P259]
TMRM images 0 vs 150 sec, estimated from Pearson coefficient, basal approximately 37%, n = 4 control and 6 P259
  % mobile mitochondria: ~ 22%
Vs no peptide control
  decline in the proportion of mobile mitochondria: 40%
